Molecular target: T1, HuR protein interaction with the ARE site of Msi1 mRNA (HuR-Msi1^ARE) (Homo sapiens, UniProt Q15717)
T1 construct: full-length human HuR protein was produced by the KU COBRE-PSF Protein Purification Group; made in house
Test: Fluorescence polarization (FP) assay, inhibition of HuR-Msi1 ARE interaction
Format: binding
Details: full-length human HuR, read-out: Ki via FP assay
Excerpt: A fluorescence polarization (FP)-based binding assay was utilized to assess the inhibition of HuR protein interaction with the ARE site of Msi1 mRNA (“HuR-Msi1^ARE”) by compounds of interest. Briefly, full-length human HuR protein was produced by the KU COBRE-PSF Protein Purification Group and Bcl2, Msi1 and XIAP mRNA sequences (16 nt) were designed based on literature precedent^23,24,31,32. Fluorescein labeled RNAs were purchased from Dharmacon with the following sequences: Msi1 RNA: 5′-GCUUUUAUUUAUUUUG-3′-fluorescein; Bcl-2 RNA: 5′-AAAAGAUUUAUUUAUU-3′-fluorescein; XIAP RNA: 5′-UAGUUAUUUUUA UGUC-3′-fluorescein, and a 16-nt degenerative RNA with 3′-fluorescein label was used as a negative control.

T1 sequence (Q15717 whole entry): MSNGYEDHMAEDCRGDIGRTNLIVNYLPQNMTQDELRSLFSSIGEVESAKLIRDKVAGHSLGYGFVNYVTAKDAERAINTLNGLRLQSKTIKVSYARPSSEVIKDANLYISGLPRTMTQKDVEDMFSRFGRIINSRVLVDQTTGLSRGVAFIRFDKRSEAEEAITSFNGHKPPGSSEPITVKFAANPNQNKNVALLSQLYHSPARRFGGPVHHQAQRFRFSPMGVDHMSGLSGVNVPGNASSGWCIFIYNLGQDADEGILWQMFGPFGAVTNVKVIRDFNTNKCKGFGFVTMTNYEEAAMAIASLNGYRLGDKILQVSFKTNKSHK

Compound `CC(C)(C)c1ccc(S(=O)(=O)Nc2ccc3sc(/C=C/C(=O)NO)cc3c2)cc1` [KH-3] has a Ki of 810 nM.

Reference: patent US20230131501A1, “THERAPEUTIC USES OF INHIBITORS OF THE RNA-BINDING PROTEIN HuR” (University of Kansas, priority 2020, published 2023)
